Experimental data from patent US20250257086A1, “EGFR DEGRADATION AGENT” (Beijing Tide Pharmaceutical Co., Ltd., priority 2022, published 2025).
Where two headings read alike, the source gives them in different places.

How the values were obtained:
Assay type in all cases: cell-based
[1] = biological target: Ba/F3 (EGFR^L858R/T790M/C797S) cells (Homo sapiens, UniProt P00533, T790M/C797S/L858R, cells depend on it); test: Antiproliferative activity on Ba/F3 (EGFR L858R/T790M/C797S) cells (CTG)
How it was run: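 Luminescent CellTiter-Glo read-out on Ba/F3 cells carrying EGFR L858R/T790M/C797S. Inhibition normalised between untreated vehicle and a 10 μM positive drug. IC50 taken from a variable-slope four-parameter fit of inhibition against log compound concentration.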

[2] = system: H1975 (EGFR^L858R/T790M) cells; test: Antiproliferative activity on H1975 (EGFR L858R/T790M) cells (CTG); settings: Homo sapiens, read-out: IC50 (nM), antiproliferative activity
Experimental: 30 nL of the compound dilution was added to a 384-well plate by Echo (Labcyte, Echo550).
The percent inhibition rate (% inhibition) was calculated by the following formula
[formula] • LUMcmpd: Luminescence value of assay compound. • LUMpositive: Average LUM value of positive drug with a concentration of 10 μM. • LUMvehicle: Average LUM value of negative control group without drug treatment.
The nonlinear regression curve (dose response-variable slope) between the value of inhibition rate (%) and the logarithm of compound concentration was fitted with graphpad prism 8.0, the effect dose curve of compound was drawn, and the IC50 value was calculated.
Y=Bottom+(Top−Bottom)/(1+10^((Log IC50−X)*HillSlope)) • X-axis: logarithm of compound concentration; Y axis: inhibition rate (inhibition).

[3] = biological target: T1, EGFR^L858R/T790M/C797S protein (Homo sapiens, UniProt P00533, C797S/L858R/T790M); test: Induction of EGFR L858R/T790M/C797S protein degradation in Ba/F3 cells (Alpha counts); settings: 24h treatment; for degradation effect on EGFR^L858R/T790M/C797S protein (in words): FIG. 1 and 2; for DC50: range 1 nM to 1000 nM, FIG. 1 and 2, read-out: DC50, reduction of EGFR^L858R/T790M/C797S protein level
T1 construct: expressed in transfected cells; host or cells: Ba/F3 (EGFR^L858R/T790M/C797S) cells
T1 sequence (P00533 25-1210 T790M/C797S/L858R): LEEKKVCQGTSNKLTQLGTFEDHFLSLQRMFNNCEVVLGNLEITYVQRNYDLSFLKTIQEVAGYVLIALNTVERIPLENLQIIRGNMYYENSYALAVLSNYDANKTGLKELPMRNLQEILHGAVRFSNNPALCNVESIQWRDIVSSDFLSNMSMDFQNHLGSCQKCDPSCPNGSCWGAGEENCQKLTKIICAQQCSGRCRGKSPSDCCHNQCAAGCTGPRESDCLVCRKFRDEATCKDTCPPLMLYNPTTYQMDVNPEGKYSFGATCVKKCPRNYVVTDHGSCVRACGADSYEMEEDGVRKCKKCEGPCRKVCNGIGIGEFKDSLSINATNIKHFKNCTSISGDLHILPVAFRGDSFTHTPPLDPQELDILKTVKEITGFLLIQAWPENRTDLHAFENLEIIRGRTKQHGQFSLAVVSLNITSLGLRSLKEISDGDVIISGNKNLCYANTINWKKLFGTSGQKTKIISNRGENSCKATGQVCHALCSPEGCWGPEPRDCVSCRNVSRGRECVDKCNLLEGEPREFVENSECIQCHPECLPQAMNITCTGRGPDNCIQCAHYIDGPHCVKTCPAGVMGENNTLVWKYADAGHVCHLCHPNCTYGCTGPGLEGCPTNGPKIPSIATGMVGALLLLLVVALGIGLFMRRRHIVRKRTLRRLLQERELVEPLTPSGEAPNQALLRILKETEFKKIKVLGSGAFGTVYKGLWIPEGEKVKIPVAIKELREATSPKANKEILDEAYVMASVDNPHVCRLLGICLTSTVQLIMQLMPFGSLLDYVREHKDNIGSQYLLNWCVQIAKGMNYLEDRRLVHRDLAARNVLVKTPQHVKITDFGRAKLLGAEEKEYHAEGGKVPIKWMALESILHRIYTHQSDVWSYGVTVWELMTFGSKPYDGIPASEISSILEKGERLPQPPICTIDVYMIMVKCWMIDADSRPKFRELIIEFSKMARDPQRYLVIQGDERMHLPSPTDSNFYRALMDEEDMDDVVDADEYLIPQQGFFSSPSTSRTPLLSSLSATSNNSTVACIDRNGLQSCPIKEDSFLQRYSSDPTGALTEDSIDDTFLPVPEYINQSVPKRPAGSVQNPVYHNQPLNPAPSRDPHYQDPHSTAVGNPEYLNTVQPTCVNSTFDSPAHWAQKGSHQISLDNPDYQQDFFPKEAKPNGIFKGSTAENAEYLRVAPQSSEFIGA
Experimental: (§1) Ba/F3 (EGFR^L858R/T790M/C797S) and Ba/F3 (EGFR^Del19/T790M/C797S) cells were cultured according to the culture conditions recommended by ATCC, and analyzed by index.
(§2) Culture conditions: incubated at 37° C., 95% air, 5% CO2 incubator.
(§3) (2) Compound Stock Solution: 10 mM Stock Solution in DMSO, Stored at −20° C.
(§4) The cells in the cell culture bottle were collected, and the cells with viability of >90% can be used in the assay. Cells were seeded in a 96-well plate with 40 μL cells, 1*10^5 cells/well.
(§5) The compounds were serially diluted 3× with DMSO, with the starting concentrations of the compounds being 1.0 mM (EGFR^L858R/T790M/C797S assay) and 10 mM (EGFR^Del19/T790M/C797S assay), respectively, into 10 concentrations to prepare working solutions.
(§6) (5) Compound was Pipetted into the 96-Well Plate to Treat Cells in a 37° C., 95% Air, 5% CO2 Incubator for 24h.
(§7) • 1) 1 μg/mL EGF stimulated cells for 10 min; • 2) After the compound treatment was completed, lysis buffer was added to lyse cells; 10 μL of cell lysate was transferred to the 384-well plate; in addition, control lysate, negative control and 5 μL of acceptor mix were added to the 384-well plate; The plate was shaken on a shaker for 1-2 min; • 3) 5 μL of donor mix was added to each well; the 384-well plate was sealed, shaken on a shaker for 1-2 min, and left in the dark at room temperature overnight; then the plate was read with ELISA reader.
(§8) Alpha counts were fitted by logarithmic treatment of compound concentration with Graphpad Prism 8.0.
(§9) [formula] • X: logarithm of compound concentration; Y: Alpha Counts.

[4] = biological target: T2, EGFR^Del19/T790M/C797S protein (Homo sapiens, UniProt P00533, C797S/DEL746-750/T790M); test: Induction of EGFR Del19/T790M/C797S protein degradation in Ba/F3 cells (Alpha counts); settings: 24h treatment; for degradation effect on EGFR^Del19/T790M/C797S protein (in words): FIG. 3; for DC50: range 1 nM to 10000 nM, FIG. 3, read-out: DC50, reduction of EGFR^Del19/T790M/C797S protein level
T2 construct: expressed in transfected cells; host or cells: Ba/F3 (EGFR^Del19/T790M/C797S) cells
T2 sequence (P00533 with tags, fused parts or gaps DEL746-750/T790M/C797S): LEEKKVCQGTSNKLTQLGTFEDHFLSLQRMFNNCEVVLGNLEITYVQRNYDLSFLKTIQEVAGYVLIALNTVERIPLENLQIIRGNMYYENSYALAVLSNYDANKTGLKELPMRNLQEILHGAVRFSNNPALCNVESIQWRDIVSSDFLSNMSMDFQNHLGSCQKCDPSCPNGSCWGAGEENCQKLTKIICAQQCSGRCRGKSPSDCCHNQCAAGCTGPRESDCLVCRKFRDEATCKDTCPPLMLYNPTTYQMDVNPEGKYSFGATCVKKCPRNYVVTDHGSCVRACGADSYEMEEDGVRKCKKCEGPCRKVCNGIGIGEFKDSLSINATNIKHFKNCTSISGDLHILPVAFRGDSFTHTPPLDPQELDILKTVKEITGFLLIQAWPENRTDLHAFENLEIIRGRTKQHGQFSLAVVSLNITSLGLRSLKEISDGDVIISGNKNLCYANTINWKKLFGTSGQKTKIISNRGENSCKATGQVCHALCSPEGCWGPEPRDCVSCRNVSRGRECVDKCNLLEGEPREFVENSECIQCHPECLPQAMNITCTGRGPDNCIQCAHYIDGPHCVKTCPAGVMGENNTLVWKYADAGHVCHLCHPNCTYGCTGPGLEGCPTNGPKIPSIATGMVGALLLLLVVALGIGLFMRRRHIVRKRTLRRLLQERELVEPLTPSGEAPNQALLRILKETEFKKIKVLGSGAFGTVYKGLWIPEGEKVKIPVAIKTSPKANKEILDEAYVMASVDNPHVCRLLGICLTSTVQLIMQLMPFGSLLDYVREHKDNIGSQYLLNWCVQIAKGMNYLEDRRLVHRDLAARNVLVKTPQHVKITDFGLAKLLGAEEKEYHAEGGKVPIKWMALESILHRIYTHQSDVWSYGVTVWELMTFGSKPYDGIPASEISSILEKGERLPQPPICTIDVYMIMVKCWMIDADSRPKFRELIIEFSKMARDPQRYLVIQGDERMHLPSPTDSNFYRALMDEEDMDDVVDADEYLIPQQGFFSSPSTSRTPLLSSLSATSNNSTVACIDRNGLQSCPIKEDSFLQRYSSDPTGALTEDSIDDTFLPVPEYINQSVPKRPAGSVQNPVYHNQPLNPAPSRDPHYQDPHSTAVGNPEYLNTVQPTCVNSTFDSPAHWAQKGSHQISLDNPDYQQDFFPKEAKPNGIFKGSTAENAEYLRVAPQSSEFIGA
Experimental: as §1, §2, §3, §4, §5, §6, §7, §8, §9

[5] = NCI-H1975, H1975 (EGFR^L858R/T790M) cells, 72h incubation, CTG luminescence
[6] = 72h incubation, CTG luminescence, read-out: IC50 (nM), antiproliferative activity

Ba/F3 (EGFR^L858R/T790M/C797S) cells, sequence (P00533 whole entry T790M/C797S/L858R): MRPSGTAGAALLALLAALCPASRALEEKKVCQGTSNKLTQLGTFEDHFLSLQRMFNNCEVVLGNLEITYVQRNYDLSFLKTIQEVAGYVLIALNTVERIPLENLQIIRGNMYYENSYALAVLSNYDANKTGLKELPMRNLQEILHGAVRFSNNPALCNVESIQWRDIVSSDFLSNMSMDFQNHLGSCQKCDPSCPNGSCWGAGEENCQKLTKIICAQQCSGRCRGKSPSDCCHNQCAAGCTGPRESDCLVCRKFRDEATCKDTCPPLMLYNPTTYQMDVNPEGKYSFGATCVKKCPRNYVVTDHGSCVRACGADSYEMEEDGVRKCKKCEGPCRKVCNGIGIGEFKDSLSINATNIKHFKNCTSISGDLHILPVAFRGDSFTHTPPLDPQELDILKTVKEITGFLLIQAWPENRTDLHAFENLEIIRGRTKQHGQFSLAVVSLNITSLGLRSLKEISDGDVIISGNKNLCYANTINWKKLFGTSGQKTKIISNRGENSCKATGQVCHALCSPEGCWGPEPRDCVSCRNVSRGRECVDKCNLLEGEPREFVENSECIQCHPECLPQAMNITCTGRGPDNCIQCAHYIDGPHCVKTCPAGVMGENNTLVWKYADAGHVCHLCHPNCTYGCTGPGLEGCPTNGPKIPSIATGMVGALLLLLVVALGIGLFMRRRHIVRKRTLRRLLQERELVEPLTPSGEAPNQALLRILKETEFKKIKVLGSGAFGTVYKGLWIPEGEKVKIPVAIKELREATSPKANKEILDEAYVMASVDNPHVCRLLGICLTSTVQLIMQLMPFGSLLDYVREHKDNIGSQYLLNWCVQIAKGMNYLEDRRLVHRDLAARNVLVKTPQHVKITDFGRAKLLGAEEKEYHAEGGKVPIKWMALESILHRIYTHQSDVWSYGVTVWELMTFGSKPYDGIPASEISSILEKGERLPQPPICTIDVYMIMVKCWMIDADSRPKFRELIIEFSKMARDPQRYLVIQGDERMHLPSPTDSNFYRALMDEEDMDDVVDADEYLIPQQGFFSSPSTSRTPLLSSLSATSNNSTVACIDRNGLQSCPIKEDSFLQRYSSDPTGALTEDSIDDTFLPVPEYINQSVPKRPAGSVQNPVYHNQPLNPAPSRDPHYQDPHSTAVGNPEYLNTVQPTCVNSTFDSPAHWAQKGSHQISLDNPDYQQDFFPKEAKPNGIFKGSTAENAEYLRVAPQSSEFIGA

IC50 [2, 5] | degradation effect on EGFR^L858R/T790M/C797S protein (in words) [3] | GI50 [1, 6] | SMILES | also measured
1390 nM | – | – | COc1cc(N2CCC(N3CCN(CCCC#Cc4cccc5c4CN(C4CCC(=O)NC4=O)C5=O)CC3)CC2)ccc1Nc1ncc(Cl)c(Nc2ccccc2P(C)(C)=O)n1 (stereo not drawn) [Comparative compound C126] | –
– | no degradation effect | 458 nM | C=C(F)C(=O)Nc1cc(Nc2ncc(Cl)c(Nc3ccccc3P(C)(C)=O)n2)c(OC)cc1N1CCC(N2CCN(C)CC2)CC1 [Comparative compound L527, reference compound] | –
14.6 nM | – | 35.6 nM | CC#CC(=O)Nc1cc(Nc2ncc(Cl)c(Nc3ccccc3P(C)(C)=O)n2)c(OC)cc1N1CCC(N2CCN(CCCC#Cc3cccc4c3CN(C3CCC(=O)NC3=O)C4=O)CC2)CC1 (stereo not drawn) [Compound D058, N-(5-((5-chloro-4-((2-(dimethylphosphoryl)phenyl)amino)pyrimidin-2-yl)amino)-2-(4-(4-(5-(2-(2,6-dioxopiperidin-3-yl)-1-oxoisoindolin-4-yl)pent-4-yn-1-yl)piperazin-1-yl)piperidin-1-yl)-4-methoxyphenyl)but-2-ynamide] | degradation effect on EGFR^Del19/T790M/C797S protein (in words) [4]: significant degradation effects; DC50 [4]: 25.1 nM
– | significant degradation effect | 19.2 nM | C=C(F)C(=O)Nc1cc(Nc2ncc(Br)c(Nc3ccccc3P(C)(C)=O)n2)c(OC)cc1N1CCC(N2CCN(CCCC#Cc3cccc4c3CN(C3CCC(=O)NC3=O)C4=O)CC2)CC1 (stereo not drawn) [Compound D078, N-(5-((5-bromo-4-((2-(dimethylphosphoryl)phenyl)amino)pyrimidin-2-yl)amino)-2-(4-(4-(5-(2-(2,6-dioxopiperidin-3-yl)-1-oxoisoindolin-4-yl)pent-4-yn-1-yl)piperazin-1-yl)piperidin-1-yl)-4-methoxyphenyl)-2-fluoroacrylamide] | DC50 [3]: 84.7 nM
17.6 nM | – | 30.3 nM | C=CC(=O)Nc1cc(Nc2ncc(Br)c(Nc3ccccc3P(C)(C)=O)n2)c(OC)cc1N1CCC(N2CCN(CCCC#Cc3cccc4c3CN(C3CCC(=O)NC3=O)C4=O)CC2)CC1 (stereo not drawn) [Compound D478, N-(5-((5-bromo-4-((2-(dimethylphosphoryl)phenyl)amino)pyrimidin-2-yl)amino)-2-(4-(4-(5-(2-(2,6-dioxopiperidin-3-yl)-1-oxoisoindolin-4-yl)pent-4-yn-1-yl)piperazin-1-yl)piperidin-1-yl)-4-methoxyphenyl)acrylamide] | –
– | significant degradation effect | 37.3 nM | C=C(F)C(=O)Nc1cc(Nc2ncc(Cl)c(Nc3ccccc3P(C)(C)=O)n2)c(OC)cc1N1CCC(N2CCN(CCCC#Cc3cccc4c3CN(C3CCC(=O)NC3=O)C4=O)CC2)CC1 (stereo not drawn) [Compound D552, N-(5-((5-chloro-4-((2-(dimethylphosphoryl)phenyl)amino)pyrimidin-2-yl)amino)-2-(4-(4-(5-(2-(2,6-dioxopiperidin-3-yl)-1-oxoisoindolin-4-yl)pent-4-yn-1-yl)piperazin-1-yl)piperidin-1-yl)-4-methoxyphenyl)-2-fluoroacrylamide] | DC50 [3]: 117 nM; degradation effect on EGFR^Del19/T790M/C797S protein (in words) [4]: significant degradation effects; DC50 [4]: 29.7 nM
– | – | 36.7 nM | COc1cc(N2CCC(N3CCN(CCCC#Cc4cccc5c4CN(C4CCC(=O)NC4=O)C5=O)CC3)CC2)c(C)cc1Nc1ncc(Br)c(Nc2ccc3nccnc3c2N(C)S(C)(=O)=O)n1 (stereo not drawn) [Compound D932] | –
– | – | 12.3 nM | C=C(F)C(=O)Nc1cc(Nc2ncc(Br)c(Nc3ccc4nccnc4c3NS(C)(=O)=O)n2)c(OC)cc1N1CCC(N2CCN(CCCC#Cc3cccc4c3CN(C3CCC(=O)NC3=O)C4=O)CC2)CC1 (stereo not drawn) [Compound D933] | –
– | – | 31.9 nM | C=C(F)C(=O)Nc1cc(Nc2ncc(Br)c(Nc3ccc4nccnc4c3N(C)S(C)(=O)=O)n2)c(OC)cc1N1CCC(N2CCN(CCCC#Cc3cccc4c3CN(C3CCC(=O)NC3=O)C4=O)CC2)CC1 (stereo not drawn) [Compound D934] | –
– | – | – | C=CC(=O)Nc1cc(Nc2nccc(-c3cn(C)c4ccccc34)n2)c(OC)cc1N(C)CCN(C)C [Osimertinib] | IC50 ([2]; NCI-H1975, 72 h): 10.7 nM

SMILES | IC50 [2, 5] | degradation effect on EGFR^L858R/T790M/C797S protein (in words) [3] | GI50 [1, 6] | also measured
COc1cc(N2CCC(N3CCN(C)CC3)CC2)ccc1Nc1ncc(Cl)c(Nc2ccccc2P(C)(C)=O)n1 [Brigatinib, reference compound] | 747 nM | no degradation effect | – | GI50 ([1]; read-out: IC50 (nM), antiproliferative activity, 72h incubation, CTG luminescence): 355 nM
